From patent publication US20250059180A1 (DONG WHA PHARM. CO., LTD., priority 2022, published 2025)

What follows are compounds tested on Pfeiffer cells, lymphoma cells having EZH2 mutation (A677G) (assay: Proliferation inhibition of cells of hematologic malignancies (CCK-8, 11 days)). Conditions: 11 days culture, read-out: Cell proliferation inhibitory effect (IC50).
Format: cell-based
Experimental: The growth inhibitory activity of 1,3-benzodioxole derivative compounds represented by chemical formula I of the present invention against Pfeiffer cells, which are lymphoma cells having EZH2 mutation (A677G), was evaluated.
Pfeiffer was cultured using RPMI1640 containing 10% fetal bovine serum. The cells were inoculated into wells of a 96-well culture dish at 10,000 cells each, and cultured for 11 days after treating with the test material for each concentration. For 11 days, the test material was replaced every three to four days. After culturing, the cells were treated with a cell counting kit-8 (CCK-8) reagent for each well, absorbance was measured at 450 nm, and IC50 values for cell proliferation were obtained through curve fitting of non-linear regression in the GraphPad program (GraphPad Prism 5.0 software).

Row | SMILES | IC50
1 | CSc1cc(C)[nH]c(=O)c1CNC(=O)c1cc(-c2ccc(N3CCOCC3)nc2)c2c(c1C)OC(C)(C1CCN(CC(F)F)CC1)O2 (single isomer, unassigned) [Compound 65, 2-(1-(2,2-difluoroethyl)piperidin-4-yl)-2,4-dimethyl-N-((6-methyl-4-(methylthio)-2-oxo-1,2-dihydropyridin-3-yl)methyl)-7-(6-morpholinopyridin-3-yl)benzo[d][1,3]dioxole-5-carboxamide] | ≥ 100 nM
2 | CCN1CCC(C2(C)Oc3c(-c4ccc(N5C[C@@H](C)O[C@@H](C)C5)nc4)cc(C(=O)NCc4c(SC)cc(C)[nH]c4=O)c(C)c3O2)CC1 (single isomer, unassigned) [Compound 49] | ≤ 10 nM
3 | CSc1cc(C)[nH]c(=O)c1CNC(=O)c1cc(-c2ccc(N3C[C@@H](C)O[C@@H](C)C3)nc2)c2c(c1C)OC(C)(C1CCN(CC(F)(F)F)CC1)O2 (single isomer, unassigned) [Compound 44] | ≤ 10 nM
4 | CSc1cc(C)[nH]c(=O)c1CNC(=O)c1cc(-c2ccc(N3CCOCC3)nc2)c2c(c1C)OC(C)(C1CCN(CC(F)F)CC1)O2 (single isomer, unassigned) [Compound 64, 2-(1-(2,2-difluoroethyl)piperidin-4-yl)-2,4-dimethyl-N-((6-methyl-4-(methylthio)-2-oxo-1,2-dihydropyridin-3-yl)methyl)-7-(6-morpholinopyridin-3-yl)benzo[d][1,3]dioxole-5-carboxamide] | ≤ 10 nM
5 | CCN1CCN(c2ncc(-c3cc(C(=O)NCc4c(SC)cc(C)[nH]c4=O)c(C)c4c3OC(C)(C3CCN(CC(F)(F)F)CC3)O4)cn2)CC1 (single isomer, unassigned) [Compound 76, 7-(2-(4-ethylpiperazin-1-yl)pyrimidin-5-yl)-2,4-dimethyl-N-((6-methyl-4-(methylthio)-2-oxo-1,2-dihydropyridin-3-yl)methyl)-2-(1-(2,2,2-trifluoroethyl)piperidin-4-yl)benzo[d][1,3]dioxole-5-carboxamide] | ≤ 10 nM
6 | CSc1cc(C)[nH]c(=O)c1CNC(=O)c1cc(-c2ccc(N3C[C@@H](C)O[C@@H](C)C3)nc2)c2c(c1C)OC(C)(C1CCN(CC(F)F)CC1)O2 (single isomer, unassigned) [Compound 48] | ≥ 100 nM
7 | CCN1CCC(C2(C)Oc3c(-c4cnc(N5CCOCC5)nc4)cc(C(=O)NCc4c(SC)cc(C)[nH]c4=O)c(C)c3O2)CC1 (single isomer, unassigned) [Compound 73, 2-(1-ethylpiperidin-4-yl)-2,4-dimethyl-N-((6-methyl-4-(methylthio)-2-oxo-1,2-dihydropyridin-3-yl)methyl)-7-(2-morpholinopyrimidin-5-yl)benzo[d][1,3]dioxole-5-carboxamide] | ≤ 10 nM
8 | CSc1cc(C)[nH]c(=O)c1CNC(=O)c1cc(-c2ccc(N3C[C@@H](C)O[C@@H](C)C3)nc2)c2c(c1C)OC(C)(C1CCN(C(=O)C(F)(F)F)CC1)O2 (single isomer, unassigned) [Compound 60] | ≥ 100 nM
9 | CSc1cc(C)[nH]c(=O)c1CNC(=O)c1cc(-c2cnc(N3CCOCC3)nc2)c2c(c1C)OC(C)(C1CCN(CC(F)F)CC1)O2 (single isomer, unassigned) [Compound 72, 2-(1-(2,2-difluoroethyl)piperidin-4-yl)-2,4-dimethyl-N-((6-methyl-4-(methylthio)-2-oxo-1,2-dihydropyridin-3-yl)methyl)-7-(2-morpholinopyrimidin-5-yl)benzo[d][1,3]dioxole-5-carboxamide] | ≥ 100 nM
10 | CCN(C)c1ccc(-c2cc(C(=O)NCc3c(SC)cc(C)[nH]c3=O)c(C)c3c2OC(C)(C2CCN(CC(F)(F)F)CC2)O3)cn1 (stereo not shown) [Compound 87, 7-(6-(ethyl(methyl)amino)pyridin-3-yl)-2,4-dimethyl-N-((6-methyl-4-(methylthio)-2-oxo-1,2-dihydropyridin-3-yl)methyl)-2-(1-(2,2,2-trifluoroethyl)piperidin-4-vi)benzo[d][1,3]dioxole-5-carboxamide] | 10 to 100 nM
11 | CSc1cc(C)[nH]c(=O)c1CNC(=O)c1cc(-c2ccc(N3C[C@@H](C)O[C@@H](C)C3)nc2)c2c(c1C)OC(C)(C1CCN(CCc3ccccc3)CC1)O2 (single isomer, unassigned) [Compound 55] | ≤ 10 nM

Same assay, conditions: Homo sapiens, Pfeiffer, 264 h, 11 days culture, read-out: Cell proliferation inhibitory effect (IC50)

Row | SMILES | IC50
12 | CSc1cc(C)[nH]c(=O)c1CNC(=O)c1cc(-c2ccoc2)c2c(c1C)OC(C)([C@H]1CC[C@H](N(C)C)CC1)O2 (stereo partly drawn) [Compound 18, 2-(trans-4-(dimethylamino)cyclohexyl)-7-(furan-3-yl)-2,4-dimethyl-N-((6-methyl-4-(methylthio)-2-oxo-1,2-dihydropyridin-3-yl)methyl)benzo[d][1,3]dioxole-5-carboxamide] | ≤ 10 nM
13 | COc1ccc(-c2cc(C(=O)NCc3c(SC)cc(C)[nH]c3=O)c(C)c3c2OC(C)(C2CCN(CC(F)(F)F)CC2)O3)cn1 (stereo not shown) [Compound 36, 7-(6-methoxypyridin-3-yl)-2,4-dimethyl-N-((6-methyl-4-(methylthio)-2-oxo-1,2-dihydropyridin-3-yl)methyl)-2-(1-(2,2,2-trifluoroethyl)piperidin-4-yl)benzo[d][1,3]dioxole-5-carboxamide] | ≤ 10 nM
14 | CSc1cc(C)[nH]c(=O)c1CNC(=O)c1cc(-c2ccc(N3C[C@@H](C)O[C@@H](C)C3)nc2)c2c(c1C)OC(C)([C@H]1CC[C@H](N(C)CC3OCCO3)CC1)O2 (stereo partly drawn) [Compound 32, 2-(trans-4-(((1,3-dioxolan-2-yl)methyl)(methyl)amino)cyclohexyl)-7-(6-((2S,6R)-2,6-dimethylmorpholino)pyridin-3-yl)-2,4-dimethyl-N-((6-methyl-4-(methylthio)-2-oxo-1,2-dihydropyridin-3-yl)methyl)benzo[d][1,3]dioxole-5-carboxamide] | ≤ 10 nM
15 | CSc1cc(C)[nH]c(=O)c1CNC(=O)c1cc(-c2ccc(N3C[C@@H](C)O[C@@H](C)C3)nc2)c2c(c1C)OC(C)([C@H]1CC[C@H](N(C)C)CC1)O2 (stereo partly drawn) [Compound 1, 2-(trans-4-(dimethylamino)cyclohexyl)-7-(6-((2S,6R)-2,6-dimethylmorpholino)pyridin-3-yl)-2,4-dimethyl-N-((6-methyl-4-(methylthio)-2-oxo-1,2-dihydropyridin-3-yl)methyl)benzo[d][1,3]dioxole-5-carboxamide] | ≤ 10 nM
16 | CSc1cc(C)[nH]c(=O)c1CNC(=O)c1cc(-c2ccc(N3C[C@@H](C)O[C@@H](C)C3)nc2)c2c(c1C)OC(C)([C@H]1CC[C@H](N(C)C[C@H](C)O)CC1)O2 (stereo partly drawn) [Compound 29, 7-(6-((2S,6R)-2,6-dimethylmorpholino)pyridin-3-yl)-2-(trans-4-(((S)-2-hydroxypropyl)(methyl)amino)cyclohexyl)-2,4-dimethyl-N-((6-methyl-4-(methylthio)-2-oxo-1,2-dihydropyridin-3-yl)methyl)benzo[d][1,3]dioxole-5-carboxamide] | ≤ 10 nM
17 | COc1ccc(F)cc1-c1cc(C(=O)NCc2c(SC)cc(C)[nH]c2=O)c(C)c2c1OC(C)([C@H]1CC[C@H](N(C)C)CC1)O2 (stereo partly drawn) [Compound 12, 2-(trans-4-(dimethylamino)cyclohexyl)-7-(5-fluoro-2-methoxyphenyl)-2,4-dimethyl-N-((6-methyl-4-(methylthio)-2-oxo-1,2-dihydropyridin-3-yl)methyl)benzo[d][1,3]dioxole-5-carboxamide] | 10 to 100 nM
18 | CSc1cc(C)[nH]c(=O)c1CNC(=O)c1cc(-c2ccc(N3CC(C)CC(C)C3)nc2)c2c(c1C)OC(C)(C1CCN(CC(F)(F)F)CC1)O2 (stereo not shown) [Compound 37, 7-(6-(3,5-dimethylpiperidin-1-yl)pyridin-3-yl)-2,4-dimethyl-N-((6-methyl-4-(methylthio)-2-oxo-1,2-dihydropyridin-3-yl)methyl)-2-(1-(2,2,2-trifluoroethyl)piperidin-4-yl)benzo[d][1,3]dioxole-5-carboxamide] | 10 to 100 nM
19 | CSc1cc(C)[nH]c(=O)c1CNC(=O)c1cc(-c2cnc(N3CCCCC3)nc2)c2c(c1C)OC(C)(C1CCN(CC(F)(F)F)CC1)O2 (stereo not shown) [Compound 39, 2,4-dimethyl-N-((6-methyl-4-(methylthio)-2-oxo-1,2-dihydropyridin-3-yl)methyl)-7-(2-(piperidin-1-yl)pyrimidin-5-yl)-2-(1-(2,2,2-trifluoroethyl)piperidin-4-yl)benzo[d][1,3]dioxole-5-carboxamide] | ≤ 10 nM
20 | CSc1cc(C)[nH]c(=O)c1CNC(=O)c1cc(-c2cnc(N3C[C@@H](C)O[C@@H](C)C3)nc2)c2c(c1C)OC(C)([C@H]1CC[C@H](N(C)C)CC1)O2 (stereo partly drawn) [Compound 2, 2-(trans-4-(dimethylamino)cyclohexyl)-7-(2-((2S,6R)-2,6-dimethylaminomorpholino)pyrimidin-5-yl)-2,4-dimethyl-N-((6-methyl-4-(methylthio)-2-oxo-1,2-dihydropyridin-3-yl)methyl)benzo[d][1,3]dioxole-5-carboxamide] | ≤ 10 nM
21 | CSc1cc(C)[nH]c(=O)c1CNC(=O)c1cc(-c2cnc(N3C[C@@H](C)O[C@@H](C)C3)nc2)c2c(c1C)OC(C)(C1CCN(CC(F)(F)F)CC1)O2 (stereo partly drawn) [Compound 38, 7-(2-((2S,6R)-2,6-dimethylmorpholino)pyrimidin-5-yl)-2,4-dimethyl-N-((6-methyl-4-(methylthio)-2-oxo-1,2-dihydropyridin-3-yl)methyl)-2-(1-(2,2,2-trifluoroethyl)piperidin-4-yl)benzo[d][1,3]dioxole-5-carboxamide] | ≤ 10 nM
22 | CSc1cc(C)[nH]c(=O)c1CNC(=O)c1cc(-c2cnc(N3CCOCC3)nc2)c2c(c1C)OC(C)(C1CCN(CC(F)(F)F)CC1)O2 (stereo not shown) [Compound 68, 2,4-dimethyl-N-((6-methyl-4-(methylthio)-2-oxo-1,2-dihydropyridin-3-yl)methyl)-7-(2-morpholinopyrimidin-5-yl)-2-(1-(2,2,2-trifluoro)piperidin-4-yl)benzo[d][1,3]dioxole-5-carboxamide] | ≤ 10 nM
